“Also recorded” adds a separate entry of the source.
Assays:
[1] = tested on: tumor growth; conditions: Example 4 of U.S. Patent Application 20030158118; cited from earlier work
[2] = tested on: mouse mammary carcinoma (EMT6/CTX); experiment: Suppression of subcutaneous EMT6/CTX tumor growth in mice (tumor size); type: in vivo, mice of the CB6F1 strain; conditions: 28 days from tumor cell inoculation; i.p.; levamisole 12 mg/Kg, cimetidine 20 mg/Kg; vs control
Method: In the following exemplary embodiments of the present invention, different pharmaceutical compositions of the invention were tested in vivo for the purpose of suppression of tumor growth in mice. The control group received a vehicle containing only non-active ingredients which was compared to groups which received pharmaceutical compositions comprising different active ingredients as described in detail below. 3.5×10^5 cells of mouse mammary carcinoma (EMT6/CTX) were injected subcutaneously in to 7-8 week-old mice of the CB6F1 strain (a cross between Balbc and C57bl), in the center of their backs. The mice were then marked and divided into groups. Typically, each group consisted of 7 to 8 mice. The tumor size was measured twice a week and plotted in a graph. […] The width measurement was also used as an indication for tumor height, and the 0.52 is a normalizing factor. Mice were injected with a specified pharmaceutical composition, 6 days a week. Injection volume was 0.05 mL per 10 g body weight (25 g mice received 0.125 mL). All injections were performed intraperitoneally. The week was divided into two treatment types, cytotoxic treatment and non-cytotoxic treatment days according to the corresponding composition. […] 98% of final solution volume was measured and 2% solutol (liquid) was added. […] 98% of final solution volume was measured and 2% solutol (liquid) was added. […]

[3] = tested on: tumor growth; conditions: Experiments 3 and 4 (FIGS. 3 and 4) in WO03/061566; cited from earlier work

Row | Structure (SMILES) | Inhibition of tumor growth by Cimetidine by itself [1] | Effect on tumor growth (tumor size), Example 2, FIG. 2 [2] | Effect of cyclophosphamide alone on tumor growth [3]
1 | CN/C(=N/CCSCc1nc[nH]c1C)NC#N [cimetidine] | did not inhibit tumor growth to any significant amount | neither levamisole (Group 2), nor cimetidine (Group 3), nor their combination (Group 4) had any significant effect on tumor growth; also recorded: did not result in any significant effect on tumor growth; also recorded: neither the H2-blocker (cimetidine) alone, nor levamisole alone demonstrated any significant anti-cancer activity | 
2 | O=P1(N(CCCl)CCCl)NCCCO1 (stereo not shown) [cyclophosphamide] |  |  | very moderate effect
3 | c1ccc([C@H]2CN3CCSC3=N2)cc1 [levamisole] |  | neither levamisole (Group 2), nor cimetidine (Group 3), nor their combination (Group 4) had any significant effect on tumor growth; also recorded: neither the H2-blocker (cimetidine) alone, nor levamisole alone demonstrated any significant anti-cancer activity | 
